From US20240246992A1, “MACROCYCLIC LRRK2 KINASE INHIBITORS” (LES LABORATOIRES SERVIER, priority 2021, published 2024)
pIC50: −log10 of the molar value.

Biological target: human recombinant LRRK2 protein (Homo sapiens, UniProt Q5S007)
Assay: LRRK2 kinase activity assay (ADP-Glo, LRRKtide peptide)
Type: biochemical
Conditions: human recombinant LRRK2 wt, LRRKtide peptide and ATP, 1 h at 37° C.
Method in brief: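 Human recombinant LRRK2 reacted with LRRKtide peptide and ATP for 1 h at 37 °C in the presence of compound. ADP formed measured by ADP-Glo luminescence; IC50 fitted from 10 concentrations run in duplicate.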

human recombinant LRRK2 protein, sequence (Q5S007 whole entry): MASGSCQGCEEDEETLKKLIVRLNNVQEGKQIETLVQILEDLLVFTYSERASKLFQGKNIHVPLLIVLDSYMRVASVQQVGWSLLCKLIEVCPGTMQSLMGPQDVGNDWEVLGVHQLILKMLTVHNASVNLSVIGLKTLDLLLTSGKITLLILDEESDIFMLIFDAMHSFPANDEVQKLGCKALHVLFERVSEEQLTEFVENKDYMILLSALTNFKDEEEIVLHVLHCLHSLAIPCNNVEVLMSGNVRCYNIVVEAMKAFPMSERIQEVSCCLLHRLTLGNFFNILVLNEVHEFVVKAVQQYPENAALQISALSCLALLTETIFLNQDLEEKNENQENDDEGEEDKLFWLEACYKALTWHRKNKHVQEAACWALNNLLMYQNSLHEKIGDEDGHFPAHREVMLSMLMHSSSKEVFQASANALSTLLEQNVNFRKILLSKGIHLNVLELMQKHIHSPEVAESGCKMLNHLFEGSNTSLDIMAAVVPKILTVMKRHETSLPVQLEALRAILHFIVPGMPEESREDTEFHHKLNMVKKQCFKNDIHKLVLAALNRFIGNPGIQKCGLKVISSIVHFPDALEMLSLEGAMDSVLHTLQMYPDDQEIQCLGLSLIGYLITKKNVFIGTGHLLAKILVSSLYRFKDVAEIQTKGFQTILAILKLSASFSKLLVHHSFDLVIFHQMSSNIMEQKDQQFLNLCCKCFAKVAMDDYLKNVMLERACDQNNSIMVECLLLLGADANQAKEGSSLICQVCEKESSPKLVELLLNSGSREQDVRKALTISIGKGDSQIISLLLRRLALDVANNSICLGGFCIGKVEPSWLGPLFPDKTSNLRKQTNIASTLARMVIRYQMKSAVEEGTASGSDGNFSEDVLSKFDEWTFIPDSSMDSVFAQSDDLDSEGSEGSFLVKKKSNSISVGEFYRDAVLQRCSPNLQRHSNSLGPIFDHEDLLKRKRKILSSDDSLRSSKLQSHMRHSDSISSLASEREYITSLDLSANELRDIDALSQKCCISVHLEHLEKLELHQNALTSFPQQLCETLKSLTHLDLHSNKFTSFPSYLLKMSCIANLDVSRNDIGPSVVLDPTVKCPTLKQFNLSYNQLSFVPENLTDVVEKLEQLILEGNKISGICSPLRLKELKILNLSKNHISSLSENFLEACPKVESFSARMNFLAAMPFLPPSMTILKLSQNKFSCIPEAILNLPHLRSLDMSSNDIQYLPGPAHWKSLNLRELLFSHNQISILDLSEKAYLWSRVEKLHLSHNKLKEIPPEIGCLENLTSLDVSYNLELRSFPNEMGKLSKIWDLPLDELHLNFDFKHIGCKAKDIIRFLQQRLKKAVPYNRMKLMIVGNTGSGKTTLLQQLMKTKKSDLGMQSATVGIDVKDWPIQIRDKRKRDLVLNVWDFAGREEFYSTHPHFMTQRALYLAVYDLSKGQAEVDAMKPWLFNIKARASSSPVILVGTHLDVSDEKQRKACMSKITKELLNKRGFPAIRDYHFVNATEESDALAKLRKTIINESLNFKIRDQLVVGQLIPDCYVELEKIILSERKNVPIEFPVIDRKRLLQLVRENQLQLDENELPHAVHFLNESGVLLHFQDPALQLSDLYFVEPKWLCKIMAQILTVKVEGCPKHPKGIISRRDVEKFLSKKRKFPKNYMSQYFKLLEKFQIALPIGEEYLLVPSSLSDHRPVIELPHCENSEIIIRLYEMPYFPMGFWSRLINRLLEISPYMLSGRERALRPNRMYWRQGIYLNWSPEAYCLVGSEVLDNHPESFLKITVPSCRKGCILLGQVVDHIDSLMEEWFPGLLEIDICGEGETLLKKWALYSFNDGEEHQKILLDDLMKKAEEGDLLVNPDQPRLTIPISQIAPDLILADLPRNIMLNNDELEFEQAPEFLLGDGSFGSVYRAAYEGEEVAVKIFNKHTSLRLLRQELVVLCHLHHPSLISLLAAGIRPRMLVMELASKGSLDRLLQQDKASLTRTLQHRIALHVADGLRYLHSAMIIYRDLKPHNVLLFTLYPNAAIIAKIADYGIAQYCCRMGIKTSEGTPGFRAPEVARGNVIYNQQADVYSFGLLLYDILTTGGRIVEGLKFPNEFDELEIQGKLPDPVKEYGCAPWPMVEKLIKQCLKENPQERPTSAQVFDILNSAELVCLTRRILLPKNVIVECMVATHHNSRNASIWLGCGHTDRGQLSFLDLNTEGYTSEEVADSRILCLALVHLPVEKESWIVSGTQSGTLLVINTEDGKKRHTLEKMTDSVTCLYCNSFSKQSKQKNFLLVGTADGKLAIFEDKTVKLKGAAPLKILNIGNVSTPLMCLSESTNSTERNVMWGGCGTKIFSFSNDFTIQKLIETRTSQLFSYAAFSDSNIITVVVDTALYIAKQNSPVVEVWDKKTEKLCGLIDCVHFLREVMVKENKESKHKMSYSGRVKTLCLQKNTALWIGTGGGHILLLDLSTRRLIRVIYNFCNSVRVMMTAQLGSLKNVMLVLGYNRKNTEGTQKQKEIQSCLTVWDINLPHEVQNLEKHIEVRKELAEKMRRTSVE

Compound | pIC50
O=C1COc2cc(cc(N3CCCC3)c2)-c2n[nH]c3ccc(cc23)OCCCN1 [Example 205, 4-(pyrrolidin-1-yl)-7,14-dioxa-10,19,20-triazatetracyclo [13.5.2.1^2,6.0^18,21]tricosa-1(20),2(23),3,5,15,17,21-heptaen-9-one] | > 8.00
O=C1COc2cc(cc(N3CCC(F)(F)C3)c2)-c2n[nH]c3ccc(cc23)OCCCN1 [Example 206, 4-(3,3-difluoropyrrolidin-1-yl)-7,14-dioxa-10,19,20-triazatetracyclo[13.5.2.1^2,6.0^18,21]tricosa-1(20),2(23),3,5,15,17,21-heptaen-9-one] | > 8.00
O=C1COc2cc(cc(N3CCOCC3)c2)-c2n[nH]c3ccc(cc23)OCCCN1 [Example 207, 4-(morpholin-4-yl)-7,14-dioxa-10,19,20-triazatetracyclo [13.5.2.1^2,6.0^18,21]tricosa-1(20),2(23),3,5,15,17,21-heptaen-9-one] | > 8.00
O=C1COc2cc(C3=CCOCC3)cc(c2)-c2n[nH]c3ccc(cc23)OCCCN1 [Example 208, 4-(3,6-dihydro-2H-pyran-4-yl)-7,14-dioxa-10,19,20-triazatetracyclo[13.5.2.1^2,6.0^18,21]tricosa-1(20),2(23),3,5,15,17,21-heptaen-9-one] | > 8.00
O=C1COc2cc(cc(N3CCN(CC4CC4)CC3)c2)-c2n[nH]c3ccc(cc23)OCCCN1 [Example 209, 4-[4-(cyclopropylmethyl)piperazin-1-yl]-7,14-dioxa-10,19,20-triazatetracyclo[13.5.2.1^2,6.0^18,21]tricosa-1(20),2(23),3,5,15,17,21-heptaen-9-one] | > 8.00
O=C1COc2cc(C3=CCCOC3)cc(c2)-c2n[nH]c3ccc(cc23)OCCCN1 [Example 210, 4-(5,6-dihydro-2H-pyran-3-yl)-7,14-dioxa-10,19,20-triazatetracyclo[13.5.2.1^2,6.0^18,21]tricosa-1(20),2(23),3,5,15,17,21-heptaen-9-one] | > 8.00
O=C1COc2cc(C3=CCOC3)cc(c2)-c2n[nH]c3ccc(cc23)OCCCN1 [Example 211, 4-(2,5-dihydrofuran-3-yl)-7,14-dioxa-10,19,20-triazatetracyclo[13.5.2.1^2,6.0^18,21]tricosa-1(20),2(23),3,5,15,17,21-heptaen-9-one] | > 8.00
O=C1COc2cc(cc(N3CCNCC3)c2)-c2n[nH]c3ccc(cc23)OCCCN1 [Example 212, 4-(piperazin-1-yl)-7,14-dioxa-10,19,20-triazatetracyclo [13.5.2.1^2,6.0^18,21]tricosa-1(20),2(23),3,5,15,17,21-heptaen-9-one] | > 8.00
O=C1COc2cc(-c3ccoc3)cc(c2)-c2n[nH]c3ccc(cc23)OCCCN1 [Example 213, 4-(furan-3-yl)-7,14-dioxa-10,19,20-triazatetracyclo[13.5.2.1^2,6.0^18,21]tricosa-1(20),2(23),3,5,15,17,21-heptaen-9-one] | > 8.00
O=C1COc2cc(cc(C3CCOC3)c2)-c2n[nH]c3ccc(cc23)OCCCN1 (stereo not drawn) [Example 214, 4-(oxolan-3-yl)-7,14-dioxa-10,19,20-triazatetracyclo[13.5.2.1^2,6.0^18,21]tricosa-1(20),2(23),3,5,15,17,21-heptaen-9-one] | > 8.00
C[C@H]1COc2ccc3[nH]nc(c3c2)-c2cccc(c2)OCC(=O)N[C@@H]1C [Example 215, (11R,12R)-11,12-dimethyl-7,14-dioxa-10,19,20-triazatetracyclo[13.5.2.1^2,6.0^18,21]tricosa-1(20),2,4,6(23),15(22),16,18(21)-heptaen-9-one] | > 7.00
O=C1COc2cc(cc(N3C[C@@H](F)[C@H](F)C3)c2)-c2n[nH]c3ccc(cc23)OCCCN1 [Example 216, 4-[(3R,4R)-3,4-difluoropyrrolidin-1-yl]-7,14-dioxa-10,19,20-triazatetracyclo[13.5.2.1^2,6.0^18,21]tricosa-1(20),2(23),3,5,15,17,21-heptaen-9-one] | > 8.00
O=C1COc2cc(cc(N3CCN(C4CC4)CC3)c2)-c2n[nH]c3ccc(cc23)OCCCN1 [Example 217, 4-(4-cyclopropylpiperazin-1-yl)-7,14-dioxa-10,19,20-triazatetracyclo[13.5.2.1^2,6.0^18,21]tricosa-1(20),2(23),3,5,15,17,21-heptaen-9-one] | > 8.00
O=C1COc2cc(cc(C3CCCCO3)c2)-c2n[nH]c3ccc(cc23)OCCCN1 (stereo not drawn) [Example 218, 4-(oxan-2-yl)-7,14-dioxa-10,19,20-triazatetracyclo[13.5.2.1^2,6.0^18,21]tricosa-1(20),2(23),3,5,15,17,21-heptaen-9-one] | > 8.00
O=C1CCc2cc(F)cc(c2)-c2n[nH]c3ccc(cc23)OCCCN1 [Example 219, 4-fluoro-14-oxa-10,19,20-triazatetracyclo[13.5.2.1^2,6.0^18,21]tricosa-1(20),2(23),3,5,15(22),16,18(21)-heptaen-9-one] | > 8.00
O=C1CCc2cncc(c2)-c2n[nH]c3ccc(cc23)OCCCN1 [Example 220, 14-oxa-4,10,19,20-tetraazatetracyclo[13.5.2.1^2,6.0^18,21]tricosa-1(20),2(23),3,5,15(22),16,18(21)-heptaen-9-one] | > 8.00
CN1CCOc2ccc3[nH]nc(c3c2)-c2cccc(c2)OCCC1=O [Example 221, 11-methyl-7,14-dioxa-11,19,20-triazatetracyclo[13.5.2.1^2,6.0^18,21] tricosa-1(20),2(23),3,5,15,17,21-heptaen-10-one] | > 7.00

Compound | pIC50
O=C1COCCn2ncc(n2)-c2n[nH]c3ccc(cc23)OCCN1 [Example 222, 8,14-dioxa-4,5,11,19,20,23-hexaazatetracyclo[13.5.2.1^2,5.0^18,21]tricosa-1(20),2(23),3,15(22),16,18(21)-hexaen-10-one] | > 6.00
C[C@@H]1CCNC(=O)CCn2ncc(n2)-c2n[nH]c3ccc(cc23)O1 [Example 223, (12R)-12-methyl-13-oxa-4,5,9,18,19,22-hexaazatetracyclo[12.5.2.1^2,5.0^17,20]docosa-1(19),2(22),3,14(21),15,17(20)-hexaen-8-one] | > 8.00
O=C1CCn2ncc(n2)-c2n[nH]c3ccc(cc23)OC[C@@H](F)CN1 [Example 225, (11S)-11-fluoro-13-oxa-4,5,9,18,19,22-hexaazatetracyclo [12.5.2.1^2,5.0^17,20]docosa-1(19),2(22),3,14(21),15,17(20)-hexaen-8-one] | > 8.00
C[C@H]1CCNC(=O)CCn2ncc(n2)-c2n[nH]c3ccc(cc23)O1 [Example 226, (12S)-12-methyl-13-oxa-4,5,9,18,19,22-hexaazatetracyclo [12.5.2.1^2,5.0^17,20]docosa-1(19),2(22),3,14(21),15,17(20)-hexaen-8-one] | > 8.00
O=C1CCn2ncc(n2)-c2n[nH]c3ccc(cc23)OC[C@H](F)CN1 [Example 227, (11R)-11-fluoro-13-oxa-4,5,9,18,19,22-hexaazatetracyclo [12.5.2.1^2,5.0^17,20]docosa-1(19),2(22),3,14(21),15,17(20)-hexaen-8-one] | > 8.00
C[C@@H]1COc2ccc3[nH]nc(c3c2)-c2cccc(c2)OCCN[C@@H]1C [Example 228, (11R,12S)-11,12-dimethyl-7,14-dioxa-10,19,20-triazatetracyclo[13.5.2.1^2,6.0^18,21]tricosa-1(20),2,4,6(23),15(22),16,18(21)-heptaene] | > 8.00
C[C@H]1NCCOc2cccc(c2)-c2n[nH]c3ccc(cc23)OC[C@@H]1F [Example 231, (11R,12R)-12-fluoro-11-methyl-7,14-dioxa-10,19,20-triazatetracyclo[13.5.2.1^2,6.0^18,21]tricosa-1(20),2,4,6(23),15(22),16,18(21)-heptaene] | > 7.00
C[C@H]1CCNCCOc2cncc(c2)-c2n[nH]c3ccc(cc23)O1 [Example 232, (13S)-13-methyl-7,14-dioxa-4,10,19,20-tetraazatetracyclo[13.5.2.1^2,6.0^18,21]tricosa-1(20),2,4,6(23),15(22),16,18(21)-heptaene] | > 8.00
C[C@H]1CCNCCCn2cc(cn2)-c2n[nH]c3ccc(cc23)O1 [Example 233, (12S)-12-methyl-13-oxa-4,5,9,18,19-pentaazatetracyclo [12.5.2.1^2,5.0^17,20] docosa-1(19),2(22),3,14(21),15,17(20)-hexaene] | > 8.00
c1cc2[nH]nc3c2cc1OCCNCCCOc1cc-3cc(N2CCOCC2)c1 [Example 236, 4-(morpholin-4-yl)-7,14-dioxa-11,19,20-triazatetracyclo [13.5.2.1^2,6.0^18,21]tricosa-1(20),2,4,6(23),15,17,21-heptaene] | > 8.00
c1cc2nc(c1)-c1n[nH]c3ccc(cc13)OCCCNCCO2 [Example 237, 7,14-dioxa-10,19,20,23-tetraazatetracyclo[13.5.2.1^2,6.0^18,21]tricosa-1(20),2,4,6(23),15,17,21-heptaene] | > 8.00
c1ncc2cc1OCCCNCCOc1ccc3[nH]nc-2c3c1 [Example 238, 7,14-dioxa-4,11,19,20-tetraazatetracyclo[13.5.2.1^2,6.0^18,21]tricosa-1(20),2,4,6(23),15,17,21-heptaene] | > 8.00
CC(C)Oc1cc2cc(c1)-c1n[nH]c3ccc(cc13)OCCCN(C)CCO2 [Example 239, 10-methyl-4-(propan-2-yloxy)-7,14-dioxa-10,19,20-triazatetracyclo[13.5.2.1^2,6.0^18,21]tricosa-1(20),2,4,6(23),15,17,21-heptaene] | > 7.00
CC1CCOc2ccc3[nH]nc(c3c2)-c2cccc(n2)OCCN1 (stereo not drawn) [Example 240, 11-methyl-7,14-dioxa-10,19,20,23-tetraazatetracyclo[13.5.2.1^2,6.0^18,21]tricosa-1(20),2,4,6(23),15,17,21-heptaene] | > 8.00
C[C@@H]1CCNC(=O)C[C@H](C)n2ncc(n2)-c2n[nH]c3ccc(cc23)O1 [Example 242] | > 8.00
C[C@@H]1CCN(C)C(=O)C[C@H](C)n2ncc(n2)-c2n[nH]c3ccc(cc23)O1 [Example 243] | > 7.00
